# According to PMC7957578, “N-(1,3,4-Oxadiazol-2-yl)Benzamides as Antibacterial Agents against Neisseria gonorrhoeae” (International Journal of Molecular Sciences, 2021):
# Read-outs that look alike come from different tables or passages of the source.
# Tests used:
# [1] = system: E. coli JW55031 (TolC Mutant); experiment: MIC/MBC (CLSI broth microdilution) against E. coli TolC mutant; type: cell-based; settings: Escherichia coli
# Experimental: (§1) The minimum inhibitory concentrations (MICs) of the tested compounds and control drugs, linezolid, vancomycin, and gentamicin, were determined using the broth microdilution method according to the guidelines outlined by the Clinical and Laboratory Standards Institute (CLSI) against clinically relevant bacterial (Staphylococcus aureus, MRSA, Escherichia coli, Enterococcus faecalis and Enterococcus faecium strains. S. aureus, MRSA, E. coli, Enterococcus faecalis and Enterococcus faecium were grown aerobically overnight on tryptone soy agar (TSA) plates at 37° C. Afterwards, a bacterial solution equivalent to 0.5 McFarland standard was prepared and diluted in cation-adjusted Mueller–Hinton broth (CAMHB) (for S. aureus, MRSA, and E. coli) to achieve a bacterial concentration of about 5 × 10^5 CFU/mL. Enterococcus faecalis and Enterococcus faecium 0.5 McFarland standard solution was diluted in tryptone soy broth (TSB) to achieve a bacterial concentration of about 5 × 10^5 CFU/mL. Compounds and control drugs were added in the first row of 96-well plates and serially diluted with the corresponding media containing bacteria. Plates were then incubated as previously described. […] The minimum bactericidal concentration (MBC) was tested by spotting 4 µL from wells with no growth onto TSA plates. Plates were incubated at 37 ° C for at least 18 h before recording the MBC. The MBC was categorized as the lowest concentration that reduced bacterial growth by 99.9% [45, 46, 47].
# [2] = system: E. coli BW25113 (wild-type strain); experiment: MIC/MBC (CLSI broth microdilution) against E. coli BW25113 wild type; type: cell-based, Escherichia coli; settings: E. coli BW25113 wild-type strain; for MBC: read-out: MBC
# Experimental: as §1
# N. gonorrhoeae 165 = experiment: MIC/MBC against N. gonorrhoeae clinical isolate 165; type: cell-based; settings: Neisseria gonorrhoeae
# Experimental: (§2) Briefly, bacteria were grown overnight on chocolate agar II at 37° C in the presence of 5% CO2. Afterwards, a bacterial suspension equivalent to 1.0 McFarland standard was prepared and diluted in brucella broth supplemented with yeast extract, neopeptone, hematin, pyridoxal, and NAD. Test agents were added in the first row of the 96-well plates and serially diluted along the plates. Plates were then incubated at 37° C in the presence of 5% CO2 for 24 h. […] Plates were then incubated at 37 ° C in the presence of 5% CO2 for 24 h. The MBC was categorized as the lowest concentration that reduced bacterial growth by 99.9% [45, 46, 47].
# VRE. faecalis ATCC 51299 = experiment: MIC/MBC (CLSI broth microdilution) against VRE faecalis ATCC 51299; type: cell-based; settings: Enterococcus, VRE faecalis ATCC 51299
# Experimental: as §1
# N. gonorrhoeae = experiment: MIC against N. gonorrhoeae in presence of fetal bovine serum; type: cell-based; settings: Neisseria gonorrhoeae, 24 h
# N. gonorrhoeae 194 = experiment: MIC/MBC against N. gonorrhoeae clinical isolate 194; type: cell-based; settings: Neisseria gonorrhoeae
# Experimental: as §2
# N. gonorrhoeae WHO L = experiment: MIC/MBC against N. gonorrhoeae WHO L reference strain; type: cell-based; settings: Neisseria gonorrhoeae
# Experimental: as §2
# [3] = system: panel drug-resistant pathogenic N. gonorrhoeae strains; experiment: MIC/MBC against a panel of drug-resistant N. gonorrhoeae strains; type: cell-based, Neisseria gonorrhoeae; settings: MBC the same as or one-fold higher than MIC
# N. gonorrhoeae 197 = experiment: MIC/MBC against N. gonorrhoeae clinical isolate 197; type: cell-based; settings: Neisseria gonorrhoeae
# Experimental: as §2
# E. faecalis ATCC 29212 = experiment: MIC/MBC (CLSI broth microdilution) against E. faecalis ATCC 29212; type: cell-based; settings: Enterococcus faecalis, ATCC29212, E. faecalis ATCC 29212
# Experimental: as §1
# VRE. faecium ATCC 700221 = experiment: MIC/MBC (CLSI broth microdilution) against VRE faecium ATCC 700221; type: cell-based; settings: Enterococcus, VRE faecium ATCC 700221
# Experimental: as §1
# [4] = system: N. gonorrhoeae strain 181; experiment: MIC by broth microdilution against N. gonorrhoeae strain 181; type: cell-based, Neisseria gonorrhoeae; settings: N. gonorrhoeae strain 181
# Experimental: as §2
# [5] = system: tested bacterial strains (Table 3); experiment: MBC versus MIC against the panel of Gram-positive and Gram-negative pathogens; type: cell-based; settings: MBCs more than three-fold higher than MICs, strains of Table 3
# Experimental: While the focus of these new N-(1,3,4-oxadiazol-2-yl)benzamides is towards N. gonorrhoeae, we proceeded to test their activity against other Gram-positive and Gram-negative pathogens. Intriguingly, HSGN-235, HSGN-237, and HSGN-238 had potent activity against the tested Gram-positive bacterial pathogens. For instance, all three compounds had potent activity against the staphylococcal strains, with MICs ranging from 0.25 to 1 µg/mL (Table 3). Furthermore, HSGN-235, HSGN-237, and HSGN-238 maintained potent activity against clinically relevant Gram-positive bacterial pathogens such as vancomycin-resistant enterococci (VRE) and Listeria monocytogenes (Table 3). Additionally, we moved to test if HSGN-235, HSGN-237, and HSGN-238 were active against other Gram-negative bacterial pathogens. […] This lack of activity against Gram-negative bacteria appears to be due to HSGN-235, HSGN-237, and HSGN-238 being a substrate for efflux.
# The minimum inhibitory concentrations (MICs) of the tested compounds and control drugs, linezolid, vancomycin, and gentamicin, were determined using the broth microdilution method according to the guidelines outlined by the Clinical and Laboratory Standards Institute (CLSI) against clinically relevant bacterial (Staphylococcus aureus, MRSA, Escherichia coli, Enterococcus faecalis and Enterococcus faecium strains. S. aureus, MRSA, E. coli, Enterococcus faecalis and Enterococcus faecium were grown aerobically overnight on tryptone soy agar (TSA) plates at 37° C. Afterwards, a bacterial solution equivalent to 0.5 McFarland standard was prepared and diluted in cation-adjusted Mueller–Hinton broth (CAMHB) (for S. aureus, MRSA, and E. coli) to achieve a bacterial concentration of about 5 × 10^5 CFU/mL. Enterococcus faecalis and Enterococcus faecium 0.5 McFarland standard solution was diluted in tryptone soy broth (TSB) to achieve a bacterial concentration of about 5 × 10^5 CFU/mL. Compounds and control drugs were added in the first row of 96-well plates and serially diluted with the corresponding media containing bacteria. […]
# N. gonorrhoeae 166 = experiment: MIC/MBC against N. gonorrhoeae clinical isolate 166; type: cell-based; settings: Neisseria gonorrhoeae
# Experimental: as §2
# S. aureus ATCC 25923 = experiment: MIC/MBC (CLSI broth microdilution) against S. aureus ATCC 25923; type: cell-based; settings: Staphylococcus aureus, ATCC25923, S. aureus ATCC 25923
# Experimental: as §1
# [6] = system: L. monocytogenes ATCC 19115; experiment: MIC/MBC (CLSI broth microdilution) against L. monocytogenes ATCC 19115; type: cell-based; settings: Listeria monocytogenes, ATCC19115, L. monocytogenes ATCC 19115
# N. gonorrhoeae 200 = experiment: MIC/MBC against N. gonorrhoeae clinical isolate 200; type: cell-based; settings: Neisseria gonorrhoeae
# Experimental: as §2
# VRE. faecalisATCC 51575 = experiment: MIC/MBC (CLSI broth microdilution) against VRE faecalis ATCC 51575; type: cell-based; settings: Enterococcus, VRE faecalis ATCC 51575
# Experimental: as §1
# MRSA USA300 = experiment: MIC/MBC (CLSI broth microdilution) against MRSA USA300; type: cell-based, methicillin-resistant Staphylococcus aureus; settings: Staphylococcus aureus, MRSA USA300
# Experimental: as §1
# [7] = Escherichia coli, read-out: MIC
smiles,measurement,setting,value
"CNC(C)C1CCC(N)C(OC2C(N)CC(N)C(OC3OCC(C)(O)C(NC)C3O)C2O)O1 (centres unmarked) [Gentamicin, gentamicin, reference compound]",MBC,[1],0.25 µg/mL
same,MIC,[1],0.25 µg/mL
same,MBC,[2]; Escherichia coli,0.25 µg/mL
same,MIC,[2]; [7],0.25 µg/mL
"O=C(Nc1nnc(-c2ccc(C(F)(F)F)cc2)o1)c1ccc(OC(F)(F)F)c(F)c1 [HSGN-235, 3-Fluoro-4-(trifluoromethoxy)-N-(5-(4-(trifluoromethyl)phenyl)-1,3,4-oxadiazol-2-yl)benzamide]",MBC,[1],> 64 µg/mL
same,MIC,[1],4 µg/mL
same,MBC,N. gonorrhoeae 165,2 µg/mL
same,MIC,N. gonorrhoeae 165,2 µg/mL
same,MBC,VRE. faecalis ATCC 51299; read-out: MBC,64 µg/mL
same,MIC,VRE. faecalis ATCC 51299; read-out: MIC,1 µg/mL
same,MIC,N. gonorrhoeae; 5% FBS added to the media,4 µg/mL
same,MIC,N. gonorrhoeae; 10% FBS added to the media,8 µg/mL
same,MBC,N. gonorrhoeae 194,1 µg/mL
same,MIC,N. gonorrhoeae 194,1 µg/mL
same,MBC,N. gonorrhoeae WHO L,2 µg/mL
same,MIC,N. gonorrhoeae WHO L,1 µg/mL
same,type of activity from MBC versus MIC,[3],bactericidal activity
same,MBC,N. gonorrhoeae 197,2 µg/mL
same,MIC,N. gonorrhoeae 197,1 µg/mL
same,MBC,E. faecalis ATCC 29212; read-out: MBC,32 µg/mL
same,MIC,E. faecalis ATCC 29212; read-out: MIC,4 µg/mL
same,MBC,VRE. faecium ATCC 700221; read-out: MBC,32 µg/mL
same,MIC,VRE. faecium ATCC 700221; read-out: MIC,1 µg/mL
same,MIC,[4],moderate activity
same,MIC,"[4]; Neisseria gonorrhoeae, read-out: MIC",16 µg/mL
same,type of activity from MBC versus MIC,[5],bacteriostatic agents
same,MBC,N. gonorrhoeae 166,2 µg/mL
same,MIC,N. gonorrhoeae 166,2 µg/mL
same,MIC,[2],>8 µg/mL
same,MBC,[2]; Escherichia coli,> 8 µg/mL
same,MIC,[2]; [7],> 8 µg/mL
same,MBC,S. aureus ATCC 25923; read-out: MBC,> 64 µg/mL
same,MIC,S. aureus ATCC 25923; read-out: MIC,1 µg/mL
same,MBC,[6]; read-out: MBC,64 µg/mL
same,MIC,[6]; read-out: MIC,1 µg/mL
same,MBC,N. gonorrhoeae 200,2 µg/mL
same,MIC,N. gonorrhoeae 200,2 µg/mL
same,MBC,VRE. faecalisATCC 51575; read-out: MBC,> 64 µg/mL
same,MIC,VRE. faecalisATCC 51575; read-out: MIC,2 µg/mL
same,MBC,MRSA USA300; read-out: MBC,64 µg/mL
same,MIC,MRSA USA300; read-out: MIC,0.5 µg/mL
